Read-outs that look alike come from different tables or passages of the source.
Biological target: SARS-COV-2 3CLpro/Mpro protease (Severe acute respiratory syndrome coronavirus 2 (2019-nCoV) (SARS-CoV-2), UniProt P0DTD1)
Experiment: Inhibitory effect on SARS-COV-2 3CLpro/Mpro protease by fluorescence resonance energy transfer
Assay type: biochemical
Conditions: activity intervals A-D
[1] = read-out: IC50 (nM), Inhibition on SARS-CoV-2 3CLpro/Mpro protease
[2] = IC50 (nM), Inhibition on SARS-CoV-2 3CLpro/Mpro protease

In the case of CNc1cncc(C(=O)N2C[C@H](Nc3c(C(=O)N4CCCCC4)cc(Br)cc3[N+](=O)[O-])[C@@H](OC)C2)c1 [Example 306], the IC50 [1] is reported as 10 to 50 nM.
For CNc1cncc(C(=O)N2CCC[C@@H](Nc3c(C(=O)N4CC(F)(F)CC(F)(F)C4)cc(Br)cc3[N+](=O)[O-])C2)c1 [Example 307], the IC50 [1] was 10 to 50 nM.
CNc1cncc(C(=O)N2C[C@H](Nc3c(C(=O)N4CCCCC4)cc(Br)cc3[N+](=O)[O-])[C@H](OC)C2)c1 [Example 308] gave an IC50 [1] of 10 to 50 nM.
Molecule CNc1cncc(C(=O)N2CCC[C@@H](Nc3c(C(=O)N4CCc5oncc5C4)cc(Br)cc3[N+](=O)[O-])C2)c1 [Example 309] has an IC50 [1] of 10 to 50 nM.
CNc1cncc(C(=O)N2CCC[C@@H](Nc3c(C(=O)N4CCC=C(C)C4)cc(Br)cc3[N+](=O)[O-])C2)c1 [Example 310] showed an IC50 [1] of 10 to 50 nM.
In the case of CNc1cncc(C(=O)N2CCC[C@@H](Nc3c(C(=O)N4CC=C(C)CC4)cc(Br)cc3[N+](=O)[O-])C2)c1 [Example 311], the IC50 [1] is reported as 10 to 50 nM.
With CNc1cncc(C(=O)N2CCC[C@@H](Nc3c(C(=O)N4CCc5nn(C)cc5C4)cc(Br)cc3[N+](=O)[O-])C2)c1 [Example 313] the IC50 [1] was 10 to 50 nM.
For CNc1cncc(C(=O)N2CCC[C@@H](Nc3c(C(=O)N4CCn5cncc5C4)cc(Br)cc3[N+](=O)[O-])C2)c1 [Example 314], the IC50 [1] was 10 to 50 nM.
CNc1cncc(C(=O)N2CCC[C@@H](Nc3c(C(=O)N4CCc5ncsc5C4)cc(Br)cc3[N+](=O)[O-])C2)c1 [Example 315] was tested, and the IC50 [1] was 10 to 50 nM.
CNc1cncc(C(=O)N2CCC[C@@H](Nc3c(C(=O)N4CCc5oc(C)nc5C4)cc(Br)cc3[N+](=O)[O-])C2)c1 [Example 316] showed an IC50 [1] of 10 to 50 nM.
For CNc1cncc(C(=O)N2CCC[C@@H](Nc3c(C(=O)N4CCC(C5CCOCC5)CC4)cc(Br)cc3[N+](=O)[O-])C2)c1 [Example 317], the IC50 [1] was 10 to 50 nM.
In the case of CNc1cncc(C(=O)N2C[C@H](Nc3c(C(=O)N4CCN(CCOC)CC4)cc(Br)cc3[N+](=O)[O-])C(C)(O)C2)c1 (stereo partly shown) [Example 318], the IC50 [1] is reported as 10 to 50 nM.
CNc1cncc(C(=O)N2CCC[C@@H](Nc3c(C(=O)N4CCCCC4)cc(Br)cc3C(F)(F)F)C2)c1 [Example 319] showed an IC50 [1] of 50 to 100 nM.
Work on CNc1cncc(C(=O)N2C[C@H](Nc3c(C(=O)N4CCO[C@H](C)C4)cc(Br)cc3[N+](=O)[O-])[C@@H](OC)C2)c1 [Example 322] yielded an IC50 [1] of 10 to 50 nM.
CNc1cncc(C(=O)N2CCC[C@@H](Nc3c(C(=O)N4CCn5cccc5C4)cc(Br)cc3[N+](=O)[O-])C2)c1 [Example 323] showed an IC50 [1] of 10 to 50 nM.
Work on C=C1CNCC(C(=O)N2CCC[C@@H](Nc3c(C(=O)N4CCCCC4)cc(Br)cc3[N+](=O)[O-])C2)C1 (stereo partly shown) [Example 324] yielded an IC50 [1] of 100 to 200 nM.
In the case of C[C@@H]1CN(C(=O)c2cc(Br)cc([N+](=O)[O-])c2N[C@@H]2CCCN(C(=O)[C@H]3CNCC(F)(F)C3)C2)C[C@H](C)O1 [Example 325], the IC50 [1] is reported as 10 to 50 nM.
CNc1ccc2c(C(=O)N3CCC[C@@H](Nc4c(C(=O)N5C[C@@H](C)O[C@@H](C)C5)cc(Br)cc4[N+](=O)[O-])C3)cncc2c1 [Example 326] gave an IC50 [1] of 10 to 50 nM.
For O=C(c1cc(Br)cc([N+](=O)[O-])c1N[C@@H]1CCCN(C(=O)[C@H]2CNCC(F)(F)C2)C1)N1CCOC2(CC2)C1 [Example 328], the IC50 [1] was 10 to 50 nM.
In the case of C[C@@H]1CN(C(=O)c2cc(Br)cc([N+](=O)[O-])c2N[C@@H]2CCCN(C(=O)[C@H]3CNCC(F)(F)C3)C2)CCO1 [Example 329], the IC50 [1] is reported as 10 to 50 nM.
In the case of O=C(c1cc(Br)cc([N+](=O)[O-])c1N[C@@H]1CCCN(C(=O)[C@H]2CNCC(F)(F)C2)C1)N1CCO[C@H](C(F)(F)F)C1 [Example 330], the IC50 [1] is reported as 10 to 50 nM.
O=C(c1cc(Br)cc([N+](=O)[O-])c1N[C@@H]1CCCN(C(=O)[C@H]2CNCC(F)(F)C2)C1)N1CC2CCC(C1)O2 [Example 332] showed an IC50 [1] of 10 to 50 nM.
Molecule O=C(c1cc(Br)cc([N+](=O)[O-])c1N[C@@H]1CCCN(C(=O)[C@H]2CNCC(F)(F)C2)C1)N1CCC2(CCCO2)CC1 [Example 333] has an IC50 [1] of 10 to 50 nM.
CNc1cncc(C(=O)N2CCC[C@@H](Nc3c(C(=O)N4CCCOC(C)C4)cc(Br)cc3[N+](=O)[O-])C2)c1 (stereo partly shown) [Example 334] showed an IC50 [1] of 10 to 50 nM.
Molecule CNc1cncc(C(=O)N2CCC[C@@H](Nc3c(C(=O)N4CC5C=CC(C4)N5)cc(Br)cc3[N+](=O)[O-])C2)c1 [Example 335] has an IC50 [2] of 10 to 50 nM.
CNc1cncc(C(=O)N2CCC[C@@H](Nc3c(C(=O)N4CC=CCC4)cc(Br)cc3[N+](=O)[O-])C2)c1 [Example 336, (R)-(5-Bromo-2-((1-(5-(methylamino)nicotinoyl)piperidin-3-yl)amino)-3-nitrophenyl)(3,6-dihydropyridin-1 (2H)-yl) methanone] was tested, and the IC50 [1] was 10 to 50 nM.
With CNc1cncc(C(=O)N2CCC[C@@H](Nc3c(C(=O)N4CC=C(F)CC4)cc(Br)cc3[N+](=O)[O-])C2)c1 [Example 337, (R)-(5-Bromo-2-((1-(5-(methylamino)nicotinoyl)piperidin-3-yl)amino)-3-nitrophenyl)(4-fluoro-3,6-dihydropyridin-1 (2H)-yl)methanone] the IC50 [1] was 10 to 50 nM.
CNc1cncc(C(=O)N2CCC[C@@H](Nc3c(C(=O)N4CCC5(CC4)CNCC(F)(F)O5)cc(Br)cc3[N+](=O)[O-])C2)c1 [Example 338] was tested, and the IC50 [1] was 10 to 50 nM.
Work on CNc1cncc(C(=O)N2CCC[C@@H](Nc3c(C(=O)N4CCC5(CC4)COC(C)(C)C5)cc(Br)cc3[N+](=O)[O-])C2)c1 [Example 339] yielded an IC50 [1] of 10 to 50 nM.
For CNc1cncc(C(=O)N2CCC[C@@H](Nc3c(C(=O)N4CCOC(C)(C)C4)cc(Br)cc3[N+](=O)[O-])C2)c1 [Example 340], the IC50 [1] was 10 to 50 nM.
For CNc1cncc(C(=O)N2CCC[C@@H](Nc3c(C(=O)N4CCO[C@H](CCl)C4)cc(Br)cc3[N+](=O)[O-])C2)c1 [Example 341], the IC50 [1] was 10 to 50 nM.
In the case of CNc1cncc(C(=O)N2CCC[C@@H](Nc3c(C(=O)N4CCO[C@H](C5CC5)C4)cc(Br)cc3[N+](=O)[O-])C2)c1 [Example 342], the IC50 [1] is reported as 10 to 50 nM.
CNc1ccc2c(C(=O)N3CCC[C@@H](Nc4c(C(=O)N5C[C@@H](C)O[C@@H](C)C5)cc(Br)cc4[N+](=O)[O-])C3)cc(=O)[nH]c2c1 [Example 343] gave an IC50 [1] of 10 to 50 nM.
C=C[C@@H]1CN(C(=O)c2cc(Br)cc([N+](=O)[O-])c2N[C@@H]2CCCN(C(=O)c3cncc(NC)c3)C2)CCO1 [Example 344] showed an IC50 [1] of 10 to 50 nM.
CNc1cncc(C(=O)N2CCC[C@@H](Nc3c(C(=O)N4CC(C)O[C@H](C(F)(F)F)C4)cc(Br)cc3[N+](=O)[O-])C2)c1 (stereo partly shown) [Example 345] was tested, and the IC50 [1] was 10 to 50 nM.
Work on C#C[C@@H]1CN(C(=O)c2cc(Br)cc([N+](=O)[O-])c2N[C@@H]2CCCN(C(=O)c3cncc(NC)c3)C2)CCO1 [Example 346] yielded an IC50 [1] of 10 to 50 nM.
[2H]C([2H])([2H])Nc1cncc(C(=O)N2CCC[C@@H](Nc3c(C(=O)N4C[C@@H](C)O[C@@H](C)C4)cc(Br)cc3[N+](=O)[O-])C2)c1 [Example 347] gave an IC50 [1] of 10 to 50 nM.
Molecule C[C@@H]1CN(C(=O)c2cc(Br)cc([N+](=O)[O-])c2N[C@@H]2CCCN(C(=O)[C@@H]3CCCOC3)C2)C[C@H](C)O1 [Example 348] has an IC50 [1] of 10 to 50 nM.
CNc1cncc(C(=O)N2CCC[C@@H](Nc3c(C(=O)N4C[C@@H](C)O[C@@H](C(F)(F)F)C4)cc(Br)cc3[N+](=O)[O-])C2)c1 [Example 349] gave an IC50 [1] of 10 to 50 nM.
Work on CNc1cncc(C(=O)N2CCC[C@@H](Nc3c(C(=O)N4C[C@H](C)O[C@@H](C(F)(F)F)C4)cc(Br)cc3[N+](=O)[O-])C2)c1 [Example 350] yielded an IC50 [1] of 50 to 100 nM.
In the case of CNc1cncc(C(=O)N2CCC[C@@H](Nc3c(C(=O)N4CCOC5(CC5)C4)cc(Br)cc3[N+](=O)[O-])C2)c1 [Example 351], the IC50 [1] is reported as 10 to 50 nM.
Molecule CNc1cncc(C(=O)N2CCC[C@@H](Nc3c(C(=O)N4CCn5ccnc5C4)cc(Br)cc3[N+](=O)[O-])C2)c1 [Example 352] has an IC50 [1] of 10 to 50 nM.
In the case of [2H]C1([2H])CN(C(=O)c2cc(Br)cc([N+](=O)[O-])c2N[C@@H]2CCCN(C(=O)c3cncc(NC)c3)C2)CC([2H])([2H])O1 [Example 353], the IC50 [1] is reported as 10 to 50 nM.
Work on [2H]C1([2H])CC[C@@H](Nc2c(C(=O)N3C[C@@H](C)O[C@@H](C)C3)cc(Br)cc2[N+](=O)[O-])C([2H])([2H])N1C(=O)c1cncc(NC)c1 [Example 354] yielded an IC50 [1] of 10 to 50 nM.
CNc1cncc(C(=O)N2CCC[C@@H](Nc3c(C(=O)N4CCOC[C@H]4C)cc(Br)cc3[N+](=O)[O-])C2)c1 [Example 355] was tested, and the IC50 [1] was 10 to 50 nM.
For CNc1cncc(C(=O)N2CCC[C@@H](Nc3c(C(=O)N4CCOC[C@@H]4C)cc(Br)cc3[N+](=O)[O-])C2)c1 [Example 356], the IC50 [1] was 10 to 50 nM.
CNc1cncc(C(=O)N2CCC[C@@H](Nc3c(C(=O)N4C5COCC4C5)cc(Br)cc3[N+](=O)[O-])C2)c1 [Example 357, ((3R)-3-((2-(3-oxa-6-azabicyclo[3.1.1]heptan-6-carbonyl)-4-bromo-6-nitrophenyl)amino)piperidin-1-yl)(5-(methylamino)pyridin-3-yl)methanone] gave an IC50 [2] of 10 to 50 nM.
Molecule CNc1cncc(C(=O)N2CCC[C@@H](Nc3c(C(=O)N4C5CCC4COC5)cc(Br)cc3[N+](=O)[O-])C2)c1 [Example 358] has an IC50 [2] of 10 to 50 nM.
With CNc1cncc(C(=O)N2CCC[C@@H](Nc3c(C(=O)N4[C@H](C)COC[C@@H]4C)cc(Br)cc3[N+](=O)[O-])C2)c1 [Example 359] the IC50 [1] was 10 to 50 nM.
For CNc1cncc(C(=O)N2C[C@H](Nc3c(C(=O)N4CC5CCC(C4)O5)cc(Br)cc3[N+](=O)[O-])[C@@H](OC)C2)c1 [Example 360], the IC50 [1] was 10 to 50 nM.
With COCCN1CCN(C(=O)c2cc(Br)cc([N+](=O)[O-])c2N[C@@H]2CCCN(C(=O)[C@H]3CNCC(F)(F)C3)C2)CC1 [Example 361] the IC50 [1] was 10 to 50 nM.
For CNc1cncc(C(=O)N2C[C@H](Nc3c(C(=O)N4C[C@@H](C)O[C@@H](C)C4)cc(Br)cc3[N+](=O)[O-])C[C@H]2C(=O)N2CCNC(=O)C2)c1 [Example 364], the IC50 [1] was 50 to 100 nM.
Work on CNc1cncc(C(=O)N2C[C@H](Nc3c(C(=O)N4C[C@@H](C)O[C@@H](C)C4)cc(Br)cc3[N+](=O)[O-])C[C@H]2C(=O)N2CCc3nn(C)cc3C2)c1 [Example 365] yielded an IC50 [1] of 50 to 100 nM.
Work on CNC(=O)[C@@H]1C[C@@H](Nc2c(C(=O)N3C[C@@H](C)O[C@@H](C)C3)cc(Br)cc2[N+](=O)[O-])CN1C(=O)c1cncc(NC)c1 [Example 366] yielded an IC50 [1] of 10 to 50 nM.
Work on CNc1cncc(C(=O)N2C[C@H](Nc3c(C(=O)N4CCOC[C@H]4C)cc(Br)cc3[N+](=O)[O-])[C@@H](OC)C2)c1 [Example 367] yielded an IC50 [1] of 10 to 50 nM.

Reference: patent US20250042889A1, “3CLPRO PROTEASE INHIBITOR” (SHANGHAI QILU PHARMACEUTICAL RESEARCH AND DEVELOPMENT …, priority 2021, published 2025)
